Tests used:
Format in all cases: functional
[1] = test system: HUVEC; assay: Inhibition of cell invasion of HUVEC at 0.01 uM after 24 hrs by crystal violet staining based Boyden chamber assay; details: Homo sapiens
[2] = Growth inhibition of human PC3 cells at 10 uM after 48 hrs by sulforhodamine B assay; details: PC-3, 48 h, read-out: GI
[3] = Growth inhibition of human DU145 cells after 48 hrs by sulforhodamine B assay; details: DU-145, 48 h
[4] = Cytotoxicity against human OVCAR3 cells assessed as cell growth at 10 uM after 48 hrs by sulforhodamine B assay; details: OVCAR-3, 48 h, read-out: Activity
[5] = test system: SK-MEL-5; assay: Growth inhibition of human SK-MEL-5 cells at 10 uM after 48 hrs by sulforhodamine B assay; details: SK-MEL-5, 48 h, read-out: GI
[6] = test system: MCF7; assay: Growth inhibition of human MCF7 cells at 10 uM after 48 hrs by sulforhodamine B assay; details: MCF7, 48 h, read-out: GI
[7] = Growth inhibition of human DU145 cells at 10 uM after 48 hrs by sulforhodamine B assay; details: DU-145, 48 h, read-out: GI
[8] = Growth inhibition of human OVCAR3 cells after 48 hrs by sulforhodamine B assay; details: OVCAR-3, 48 h
[9] = test system: MDA-MB-435; assay: Growth inhibition of human MDA-MB-435 cells at 10 uM after 48 hrs by sulforhodamine B assay; details: MDA-MB-435, 48 h, read-out: GI
[10] = test system: NCI-H522; assay: Growth inhibition of human NCI-H522 cells at 10 uM after 48 hrs by sulforhodamine B assay; details: NCI-H522, 48 h, read-out: GI
[11] = test system: A498; assay: Growth inhibition of human A498 cells at 10 uM after 48 hrs by sulforhodamine B assay; details: A498, 48 h, read-out: GI
[12] = Growth inhibition of human OVCAR3 cells at 10 uM after 48 hrs by sulforhodamine B assay; details: OVCAR-3, 48 h, read-out: GI

## COc1ccc(-c2nnc3n(C)c(=O)c4ccccc4n23)cc1O
[1]
  inhibition at 0.01 µM: 12%
[2]
  inhibition of growth at 10 µM: 73%
[3]
  GI50: 2360 nM
[4]
  growth at 10 µM: 16%
[5]
  inhibition of growth at 10 µM: 75%
[6]
  inhibition of growth at 10 µM: 85%
[7]
  inhibition of growth at 10 µM: 81%
[8]
  GI50: 45 nM
[9]
  inhibition of growth at 10 µM: 100%
[10]
  inhibition of growth at 10 µM: 100%
[11]
  inhibition of growth at 10 µM: 66%
[12]
  inhibition of growth at 10 µM: 100%
